Assay results reported in ChEMBL document CHEMBL4376903, “Cereblon Based Immunomodulatory Therapeutics” (ACS Med Chem Lett, 2020).

Experiments:
Type in all cases: cell-based
[1] = target: T1, Protein cereblon/Estrogen receptor (Homo sapiens, UniProt P03372+Q96SW2); assay: Protac activity at cereblon/ERalpha in human MCF7 cells assessed as induction of ERalpha protein degradation by Western blot analysis
Target sequence in this assay (Q96SW2 whole entry, one chain of several): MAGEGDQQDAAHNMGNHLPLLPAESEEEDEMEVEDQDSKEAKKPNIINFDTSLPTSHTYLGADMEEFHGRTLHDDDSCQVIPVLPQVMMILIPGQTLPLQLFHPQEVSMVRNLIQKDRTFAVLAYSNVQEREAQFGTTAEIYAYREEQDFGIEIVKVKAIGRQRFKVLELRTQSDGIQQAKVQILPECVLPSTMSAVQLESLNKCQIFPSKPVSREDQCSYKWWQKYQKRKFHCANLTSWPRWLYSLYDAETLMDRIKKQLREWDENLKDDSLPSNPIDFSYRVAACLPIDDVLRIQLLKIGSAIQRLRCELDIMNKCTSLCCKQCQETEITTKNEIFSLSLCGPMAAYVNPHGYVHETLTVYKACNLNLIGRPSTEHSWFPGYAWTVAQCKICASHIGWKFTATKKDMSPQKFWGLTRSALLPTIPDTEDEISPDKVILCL

Estrogen receptor = target: T2, Estrogen receptor (Homo sapiens, UniProt P03372); assay: Inhibition of ERalpha in human T47D cells by ERE-driven luciferase reporter gene assay based target engagement assay
T2 sequence (P03372 whole entry): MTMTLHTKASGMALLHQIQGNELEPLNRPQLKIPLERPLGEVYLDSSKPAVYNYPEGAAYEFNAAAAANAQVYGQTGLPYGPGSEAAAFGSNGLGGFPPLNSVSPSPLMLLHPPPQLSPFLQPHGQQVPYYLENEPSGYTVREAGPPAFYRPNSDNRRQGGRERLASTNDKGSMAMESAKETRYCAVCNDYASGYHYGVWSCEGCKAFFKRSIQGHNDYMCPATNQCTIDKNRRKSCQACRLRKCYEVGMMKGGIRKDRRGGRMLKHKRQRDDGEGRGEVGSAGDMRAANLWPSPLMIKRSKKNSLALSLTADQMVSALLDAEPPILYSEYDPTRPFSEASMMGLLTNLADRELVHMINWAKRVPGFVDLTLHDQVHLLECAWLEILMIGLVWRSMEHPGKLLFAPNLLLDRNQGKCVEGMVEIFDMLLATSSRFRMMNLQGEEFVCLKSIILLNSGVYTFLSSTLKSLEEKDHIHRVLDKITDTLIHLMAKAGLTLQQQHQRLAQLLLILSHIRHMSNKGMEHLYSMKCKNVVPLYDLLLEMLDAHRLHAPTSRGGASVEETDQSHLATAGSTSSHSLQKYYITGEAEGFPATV

[2] = target: T1, Protein cereblon/Estrogen receptor; assay: Protac activity at cereblon/ERalpha in human MCF7 cells assessed as induction of ERalpha protein degradation by Western blot analysis relative to control
Target sequence in this assay (Q96SW2 whole entry, looked up, one chain of several): as the sequence (Q96SW2 whole entry, one chain of several) above

Compound | DC50 [1] [nM] | IC50 (Estrogen receptor) [nM] | Emax [2] [%]
COc1cc(N2CCN(CCCCCOc3ccc([C@@H]4c5ccc(O)cc5CC[C@@H]4c4ccccc4)cc3)CC2)cc2c1C(=O)N([C@@H]1CCC(=O)NC1=O)C2 | < 1 | 0.37 | > 75
COc1cc(N2CCN(C3CC4CC(Oc5ccc([C@@H]6c7ccc(O)cc7CC[C@@H]6c6ccc(F)cc6)cc5)CC4C3)CC2)cc2c1C(=O)N(C1CCC(=O)NC1=O)C2 (some centres undefined) | < 1 | 0.82 | 50 to 75
COc1cc(N2CCN(CCC3CCN(c4ccc([C@@H]5c6ccc(O)cc6CC[C@@H]5c5ccccc5)cc4F)CC3)CC2)cc2c1C(=O)N(C1CCC(=O)NC1=O)C2 (some centres undefined) | 1 to 10 | 0.7 | > 75
COc1cc(N2CCN(CCCCCOc3ccc([C@@H]4c5ccc(O)cc5CC[C@@H]4c4ccccc4)cc3)CC2)cc2c1C(=O)N(C1CCC(=O)NC1=O)C2 (some centres undefined) | 1 to 10 | 0.79 | > 75
COc1cc(N2CCN(CCCCCOc3ccc([C@@H]4c5ccc(O)cc5CC[C@@H]4c4ccccc4)cc3)CC2)cc2c1C(=O)N([C@H]1CCC(=O)NC1=O)C2 | < 1 | 0.49 | > 75

The remaining lines, values ahead:

DC50 [1] [nM] | IC50 (Estrogen receptor) [nM] | Emax [2] [%] | Compound
< 1 | 0.5 | 50 to 75 | O=C1CCC(N2Cc3cc(N4CCN(CCC5(O)CC(Oc6ccc([C@@H]7c8ccc(O)cc8CC[C@@H]7c7ccccc7)cc6)C5)CC4)cc(OC(F)F)c3C2=O)C(=O)N1 (some centres undefined)
< 1 | 0.7 | > 75 | COc1cc(N2CCN(CC(=O)C3CC(Oc4ccc([C@@H]5c6ccc(O)cc6CC[C@@H]5c5ccccc5)cc4)C3)CC2)cc2c1C(=O)N(C1CCC(=O)NC1=O)C2 (some centres undefined)
< 1 | 0.3 | > 75 | COc1cc(N2CCN(CCC3(O)CC(Oc4ccc([C@@H]5c6ccc(O)cc6CC[C@@H]5c5ccccc5)cc4)C3)CC2)cc2c1C(=O)N(C1CCC(=O)NC1=O)C2 (some centres undefined)
